Our source for the IC50 values is EP2790511B1 (Merck Sharp & Dohme Corp., priority 2011, dated 2013).

The first test addresses T1, hROMK (hKir1.1) (Homo sapiens, UniProt P48048).
T1 construct: expressed in transfected cells
T1 sequence (P48048 1-391): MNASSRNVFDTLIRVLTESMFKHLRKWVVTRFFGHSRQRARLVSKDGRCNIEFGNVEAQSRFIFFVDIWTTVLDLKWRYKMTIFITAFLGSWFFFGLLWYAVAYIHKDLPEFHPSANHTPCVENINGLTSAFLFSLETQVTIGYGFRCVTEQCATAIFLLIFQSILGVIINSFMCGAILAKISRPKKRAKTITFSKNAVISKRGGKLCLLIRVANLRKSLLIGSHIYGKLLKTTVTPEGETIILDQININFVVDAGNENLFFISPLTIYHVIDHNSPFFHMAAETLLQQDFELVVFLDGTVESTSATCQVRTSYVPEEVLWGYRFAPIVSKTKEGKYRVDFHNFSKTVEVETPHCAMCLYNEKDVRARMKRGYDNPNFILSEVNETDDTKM
In words: Thallium Flux Assay. Type of test: cell-based. To be noted: HEK293 cells stably expressing hROMK (hKir1.1), FLIPR-Tetra; read-out: Thallium Flux IC50. In a few lines: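 HEK293 cells stably expressing hROMK, loaded with FluxOR dye 90 min at ambient temperature, then compound 30 min with 0.3 mM ouabain in probenecid buffer pH 7.4.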
With `Cc1c(C#N)cccc1[C@@H]1CN2CCN(C(=O)Cc3cnc(-n4cnnn4)nc3)C[C@H]2CO1` [Example 17, 2-methyl-3-[(3R,9aS)-8-{[2-(1H-tetrazol-1-yl)pyrimidin-5-yl]acetyl}octahydropyrazino[2,1-c][1,4]oxazin-3-yl]benzonitrile], the IC50 stood at 160 nM.

On to `Cc1nc(-n2cnnn2)ncc1CC(=O)N1CCN2C[C@@H](c3ccc(F)c(C#N)c3C)OC[C@H]2C1` [Example 120, 6-fluoro-2-methyl-3-[(3R9aR)-8-{[4-methyl-2-(1H-tetrazol-1-yl)pyrimidin-5-yl]acetyl}octahydropyrazino[2,1-c][1,4]oxazin-3-yl]benzonitrile], for which the IC50 came out at 200 nM.

For `Cc1c([C@H]2CN3CCN(C(=O)Cc4cccc(-n5cnnn5)n4)C[C@@H]3CO2)ccc(F)c1C#N` [Example 160, 6-fluoro-2-methyl-3-[(3S,9aR)-8-{[6-(1H-tetrazol-1-yl)pyridin-2-yl]acetyl}octahydropyrazino[2,1-c][1,4]oxazin-3-yl]benzonitrile], the concentration for half-maximal inhibition (IC50) turned out to be 390 nM.

For `COc1cc([C@@H]2CN3CCN(C(=O)Cc4ccc(-n5cnnn5)nc4)C[C@H]3CO2)ccc1C#N` [Example 41, 2-methoxy-4-[(3R,9aS)-8-{[6-(1H-tetrazol-1-yl)pyridin-3-yl]acetyl}octahydropyrazino[2,1-c][1,4]oxazin-3-yl]benzonitrile], the IC50 worked out at 230 nM.

With `Cc1c([C@H]2CN3CCN(C(=O)Cc4ccc(-n5cnnn5)nc4)C[C@H]3CN2)ccc2c1COC2=O` [Example 190, 4-methyl-5-[(3S,9aR)-8-{[6-(1H-tetrazol-1-yl)pyridin-3-yl]acetyl}octahydro-2H-pyrazino[1,2-a]pyrazin-3-yl]-2-benzofuran-1(3H)-one], the IC50 is 390 nM.

Regarding `Cc1c([C@@H]2CN3CCN(C(=O)Nc4ccc(-n5cnnn5)nc4)C[C@H]3CO2)ccc(F)c1C#N` [Example 198, (3R,9aS)-3-(3-cyano-4-fluoro-2-methylphenyl)-N-[6-(1H-tetrazol-1-yl)pyridin-3-yl]hexahydropyrazino[2,1-c][1,4]oxazine-8(1H)-carboxamide], the IC50 came to 160 nM.

With `C[C@@H]1Cc2cc([C@@H]3CN4CCN(C(=O)Cc5ccc(-n6cnnn6)nc5)C[C@H]4CN3)ccc2C(=O)O1` [Example 196, (3R)-3-methyl-6-[(3R,9aR)-8-{[6-(1H-tetrazol-1-yl)pyridin-3-yl]acetyl}octahydro-2H-pyrazino[1,2-a]pyrazin-3-yl]-3,4-dihydro-1H-isochromen-1-one], the IC50 is 230 nM.

`N#Cc1ccc([C@H]2CN3CCN(C(=O)Cc4ccc(-n5cnnn5)nc4)C[C@H]3CO2)cc1F` [Example 67, 2-fluoro-4-[(3S,9aS)-8-{[6-(1H-tetrazol-1-yl)pyridin-3-yl]acetyl}octahydropyrazino[2,1-c][1,4]oxazin-3-yl]benzonitrile]: the half-inhibitory concentration (IC50) turned out to be 70 nM.

Staying with this test, now noted: Thallium Flux IC50.
Compound `N#Cc1c(F)ccc([C@@H]2CN3CCN(C(=O)Cc4ccc(-n5cnnn5)nc4)C[C@@H]3CO2)c1F` [Example 88, 2,6-difluoro-3-[(3R,9aR)-8-{[6-(1H-tetrazol-1-yl)pyridin-3-yl]acetyl}octahydropyrazino[2,1-c][1,4]oxazin-3-yl]benzonitrile] registered a concentration for half-maximal inhibition (IC50) of 90 nM.

The compound `Cc1c(C2CN3CCN(C(=O)Cc4ccc(-n5cnnn5)nc4)CC3CCO2)ccc2c1COC2=O` (single isomer, unassigned) [Example 163, 4-methyl-5-(2-{[6-(1H-tetrazol-1-yl)pyridin-3-yl]acetyl}octahydro-2H-pyrazino[1,2-d][1,4]oxazepin-7-yl)-2-benzofuran-1(3H)-one] had an IC50 of 210 nM.

`Cc1c([C@@H]2CN3CCN(C(=O)Cc4ccc(-n5cnnn5)nc4)C[C@@H]3CO2)ccc(F)c1C#N` [Example 102, 6-fluoro-2-methyl-3-[(3R,9aR)-8-{[6-(1H-tetrazol-1-yl)pyridin-3-yl]acetyl}octahydropyrazino[2,1-c][1,4]oxazin-3-yl]benzonitrile] gave an IC50 of 150 nM.
